Tested on: BAPN-induced aortic aneurysm and dissection
Experiment: Disulfiram in BAPN-induced aortopathy mouse model, survival
Assay type: in vivo
Settings: male C57BL/6J mice, 3 weeks old, BAPN 0.5% wt/vol in drinking water for 28 days, disulfiram 10 mg/mL in sesame oil, daily I.P. 100 μL per 20 g body weight, day -1 to 27, compared to vehicle
Procedure: For the evaluation, an animal model of aortic aneurysm as described above was used to evaluate effects of disulfiram on aortic aneurysm/aortopathy. The model comprised administration of BAPN, i.e., BAPN-induced aortopathy in a mouse model. Specifics of induction of hypercholesteremia and administration of BAPN were substantially as described supra. Male C57BL/6J mice at 3 weeks old were administered beta-aminopropionitrile (BAPN, 0.5% wt/vol) in drinking water for 28 days to induce aortic aneurysm and dissection.
The mice were separated randomly into two groups: control and treatment. For the control group, sesame oil was administered daily via intraperitoneal (I.P.) injection at 100 μL per 20 g body weight from day −1 to 27 (day −1 is the day before the first day of BAPN administration). Simultaneously, for treatment group, disulfiram at 10 mg/mL in sesame oil was administered daily via I.P. injection at 100 μL per 20 g body weight. Animal survival was monitored for 28 days during BAPN administration.

CCN(CC)C(=S)SSC(=S)N(CC)CC [disulfiram, tetraethyldisulfanedicarbothioamide]
Animal survival: statistically significant increases in days of survival | Animal survival (listed as Disulfiram): protects against death from aortopathy

Source: US20240139229A1, “TREATMENT FOR AORTOPATHY” (UNIVERSITY OF KENTUCKY RESEARCH FOUNDATION, priority 2021, published 2024)
